Several values for one entry are separate records, joined by “and”; a condition that tells them apart may be missing. Identical values can stand only once.
Key:
[1] = molecular target: T1, Mcl-1 protein (Homo sapiens, UniProt Q07820); assay: SPR-based solution competitive binding assay, immobilized biotin-labelled Bim BH3 peptide; conditions: Mcl-1 20 nM; competition with immobilized Bim BH3 peptide
T1 construct: human Mcl-1 (residues 171–323); His tag (pHis-TEV vector) (N, cleaved yes); made in house; host or cells: E. coli BL21 (DE3)
Procedure: The solution competitive SPR-based assay was performed on Biacore 2000 in a similar way as was already reported. Briefly, N terminal biotin-labelled Bim BH3 peptide (141–166 amino acids) was immobilized on streptavidin (SA) chip giving a density of 800 RU (Response Units). The pre-incubated Mcl-1 protein (20 nM) with tested small-molecule inhibitors for at least 30 min was injected over the surfaces of the chip using assay buffer HBS-P (GE, #BR100368). Response units were measured at 15 s in the dissociation phase, and IC50 values were determined by nonlinear least-squares analysis using GraphPad Prism 6.0 software.

[2] = molecular target: T1, Mcl-1 protein; assay: FP-based competitive binding assay with fluorescent labelled Bid BH3 peptide; conditions: for Ki: calculated from FP IC50; for IC50: competition with fluorescent Bid probe 2 nM, 20 nM Mcl-1 for purchased compounds, 10 nM for synthesized library
Procedure: FP-based binding assays were developed and optimized to determine the binding affinities of inhibitors to the recombinant Mcl-1, Bcl-2, Bcl-xL, and Bfl-1, proteins. […] The fluorescent Bid probe was fixed at 2 nM for all assays, except for Bfl-1, where 1 nM was used. 5 μL of the tested compound in DMSO and 120 μL of protein/probe complex in the assay buffer were added to assay plates (Corning #3792), incubated at room temperature for 3 h, and the polarization values (mP) were measured at an excitation wavelength of 485 nm and an emission wavelength of 530 nm using the plate reader Synergy H1 Hybrid, BioTek. IC50 values were determined by nonlinear regression fitting of the competition curves (GraphPad Prism 6.0 Software). The Ki values were calculated as described previously.
1. List of compounds purchased from vendors
Compound s 5, 6, 7, 8 and S3, S4, S5, S6 S7, S8, S9, S10, S17 were purchased from […]
Compound s 9, 10, 11 and S11, S12, S13 were purchased from I nterbioscreen […]
His-tagged proteins containing human Mcl-1 (residues 171–323), the isoform 2 construct of the human Bcl-2 [Bcl2-2 construct for protein production starts with the Bcl2 sequence of 1-34 a a, followed by the Bcl-xL seq uence of 35-50 aa, and ends with the Bcl-2 sequenc e of 92-202aa.], Bcl-xL (Human Bcl-xL protein, which has an internal deletion for the 45 -85 amino acid residues and a C -terminal truncation for the amino acid residues 212-233), and Bf l-1 (residues 1-151), were expres sed from the pHis -TEV vector (a modified pET vector) in E. coli BL21 (DE3) cells. Cells were grown at 37 °C in 2×YT containing antibiotics to an OD600 density of 1.5, 1 and 0.8 for Mcl-1, Bcl-xL and Bcl-2 respectively. Protein expression wa s induced by 0 .4 mM IPTG at 20 °C overnight for all proteins except for Bf l-1 which was e xpressed at 3 7 °C for four hours . Cells were lysed in 20 mM HEPES pH 7.5, 200 mM NaCl, 0.1% βME with Leupeptin/Aprotinin (Mcl-1), 25mM Tris pH 8.5, 200mM NaCl (Bcl-2), 50mM Tris pH 7.5, 200 mM NaCl (Bcl-xL) and 50 mM Tris pH 8, 500 mM NaCl, 0. 1% βME with Leupeptin/Aprotinin (Bf l-1). All […]
proteins were purified from the soluble fraction using Ni-NTA resin (QIAGEN), following the manufacturer’s instructions. For purification of TEV-cleaved protein, the amino-terminal His tag was cleaved by incubation with TEV protease and the protein was further purified by anion exchange (Source Q) and gel filtration chromatography (Superdex 75, Amersham Biosciences) in 20mM HEPES pH 7.0, 50 mM NaCl (Mcl-1), […]
NaCl, 0.1% βME (Bcl-xL) and 25 mM Tris pH 7.5, 150 mM NaCl, 25% Glycerol, 0.1% βME ( Bf l-1). His-tagged Mcl-1 protein was used for TR-FRET assay and HSQC-NMR.
His-TEV cleaved Mcl-1, Bcl-2, Bcl-xL, and Bf l-1 were used in fluorescent polarization and surface plasmon resonance binding assays.
Mutant Mcl-1 protein wa s prepared by the QuikChange site -directed mutagenesi s method (Stratagene) , where Arg263 was mutated to Ala. The R263A expression pla smid was transformed into Rosetta2 DE3 cells and purified by the same method as the wildtype protein. Cultures were grown to an OD 600 of 1. 5 at 37 °C in Terrific Broth, induced with 0. 4 mM IPTG, and express ed overnight at 20 °C. The follow-up purification was performed the same way as was for Mcl-1 wild-type recombinant

[3] = molecular target: T1, Mcl-1 protein; assay: TR-FRET binding assay with Bid-Dy647 peptide; conditions: 10 nM Mcl-1, 10 nM Bid-Dy647
Procedure: TR-FRET was performed using black 384-well plates in an Envision Multilabel plate reader (Perkin Elmer Life Sciences). To each well, a mixture of 10 nM Bid-Dy647 peptide (79–99), 10 nM Mcl-1 protein, and Europium-anti-His antibody were added to a final volume of 25 μl in the assay buffer (20 mM potassium phosphate, pH 7.5; 50 mM NaCl, 1 mM EDTA and 0.05% Pluronic F68). The TR-FRET signals were measured with an Envision Multilabel plate reader after 2 h of incubation. (Ex 340 nm, Em615 nm and Em665 nm) and expressed as FRET signal ratio (F665 nm/[…] * 104)

T1 sequence (Q07820 171-323): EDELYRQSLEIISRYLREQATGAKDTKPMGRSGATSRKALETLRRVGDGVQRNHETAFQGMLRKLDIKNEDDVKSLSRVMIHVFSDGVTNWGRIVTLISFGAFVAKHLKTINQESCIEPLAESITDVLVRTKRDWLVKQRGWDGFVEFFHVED

For `O=C(CSc1nnc(-c2ccccc2)c(-c2ccccc2)n1)Nc1ccccc1` [Compound 26], the IC50 [1] was over 100 µM, the Ki [2] was over 5 µM and the IC50 [2] was over 20 µM.

Molecule `CCc1ccc(NC(=O)CSc2nnc(-c3ccco3)c(-c3ccco3)n2)cc1` [Compound 28] has an IC50 [1] of 14.3 ± 2 µM, a Ki [2] of 1.2 ± 0.1 µM and an IC50 [2] of 5 ± 0.3 µM. The IC50 [3] was 5.5 ± 1.8 µM.

Work on `O=C(CSc1nnc(-c2cccs2)c(-c2cccs2)n1)Nc1ccccc1` [Compound 25] yielded an IC50 [1] of over 100 µM, a Ki [2] of over 25 µM and an IC50 [2] of over 100 µM. For the same molecule, the IC50 [3] was over 100 µM.

Molecule `Cc1ccc(NC(=O)c2ccc3nc(-c4ccco4)c(-c4ccco4)nc3c2)cc1` [Compound 46] has a Ki [2] of 15.8 ± 2.3 µM and an IC50 [2] of 67.1 ± 9.1 µM.

In the case of `O=C(CSc1nnc(-c2ccco2)c(-c2ccco2)n1)Nc1ccccc1-c1ccccc1` [Compound 41], the IC50 [1] is reported as 1.9 ± 0.7 µM, the Ki [2] is reported as 1 ± 0.1 µM and the IC50 [2] is reported as 4.4 ± 0.5 µM. For the same molecule, the IC50 [3] was 12.7 ± 4.5 µM.

Work on `c1ccc(CCSc2nnc(-c3ccco3)c(-c3ccco3)n2)cc1` [Compound 43] yielded a Ki [2] of 0.5 ± 0.1 µM, an IC50 [2] of 2.2 ± 0.2 µM and an IC50 [3] of 5.2 ± 0.1 µM.

`Nc1ccc(NC(=O)CSc2nnc(-c3ccco3)c(-c3ccco3)n2)cc1` [Compound 33] gave an IC50 [1] of over 100 µM, a Ki [2] of over 25 µM and an IC50 [2] of over 100 µM.

In the case of `O=C(Nc1ccccc1)c1ccc2nc(-c3ccco3)c(-c3ccco3)nc2c1` [Compound 45], the Ki [2] is reported as over 12.5 µM and the IC50 [2] is reported as over 50 µM.

`O=C(CSc1nnc(-c2ccco2)c(-c2ccco2)n1)Nc1ccc(Oc2ccccc2)cc1` [Compound 31] showed a Ki [2] of 1.6 ± 0.4 µM, an IC50 [2] of 6.9 ± 1.9 µM and an IC50 [3] of 9 ± 3.8 µM.

Work on `O=C(CSc1nnc(-c2ccco2)c(-c2ccco2)n1)Nc1cccc(-c2ccccc2)c1` [Compound 40] yielded an IC50 [1] of 7.3 ± 2.1 µM, a Ki [2] of 1 ± 0.4 µM and an IC50 [2] of 4.1 ± 1.5 µM. The IC50 [3] was 7.9 ± 4.7 µM.

For `CCc1cccc(NC(=O)CSc2nnc(-c3ccco3)c(-c3ccco3)n2)c1` [Compound 37], the Ki [2] was 1.2 ± 0.1 µM and the IC50 [2] was 5.3 ± 0.5 µM.

For `COc1ccc(NC(=O)CSc2nnc(-c3ccco3)c(-c3ccco3)n2)cc1` [Compound 30], the IC50 [1] was 47.4 ± 3.9 µM, the Ki [2] was 7.8 ± 1.8 µM and the IC50 [2] was 33 µM and 33.1 µM.

In the case of `O=C(CSc1nnc(-c2ccco2)c(-c2ccco2)n1)Nc1ccc(-c2ccccc2)cc1` [Compound 35], the IC50 [1] is reported as 5.1 ± 2.3 µM, the Ki [2] is reported as 0.6 ± 0.1 µM and the IC50 [2] is reported as 2.5 ± 0.1 µM. For the same molecule, the IC50 [3] was 5 ± 2.7 µM.

For `CN(C)c1ccc(NC(=O)CSc2nnc(-c3ccco3)c(-c3ccco3)n2)cc1` [Compound 32], the IC50 [1] was over 100 µM, the Ki [2] was over 25 µM and the IC50 [2] was over 100 µM. The IC50 [3] was over 80 µM.

`O=C(CSc1nnc(-c2ccccn2)c(-c2ccccn2)n1)Nc1ccccc1` [Compound 27] was tested, and the IC50 [1] was over 100 µM, the Ki [2] was over 12.5 µM and the IC50 [2] was over 50 µM.

With `O=C(CSc1nnc(-c2ccco2)c(-c2ccco2)n1)Nc1ccc(Cc2ccccc2)cc1` [Compound 36] the IC50 [1] was 4.2 ± 0.4 µM, the Ki [2] was 0.6 ± 0.1 µM and the IC50 [2] was 2.5 ± 0.6 µM. It also gave an IC50 [3] of 5.1 ± 1.5 µM.

In the case of `O=C(CSc1nnc(-c2ccco2)c(-c2ccco2)n1)Nc1ccc(F)cc1` [Compound 34], the IC50 [1] is reported as 12.5 ± 1.7 µM, the Ki [2] is reported as 1.9 ± 0.2 µM and the IC50 [2] is reported as 8.1 ± 0.8 µM. It also gave an IC50 [3] of 11.6 ± 4 µM.

— article PMC6033896, “Discovery of Mcl-1 inhibitors from integrated high throughput and virtual screening” (Scientific Reports, 2018)
